# Measured values published in patent publication US20060067942A1, “Pharmaceutical agent comprising amino acids, peptides, proteins and/or fractions and fragments thereof and the use of same in the prophylaxis and treatment of immune system deficiency in humans and animals” (priority 2004, published 2006).
# Values joined by “and” are separate entries in the source; they are usually repeats but may differ in a detail not shown here. Equal entries are not always repeated.
# Key:
# T-lymphocytes = experiment: E-rosette test in immunosuppressed guinea pigs; format: in vivo, guinea pig
# Text: Guinea pig's T-lymphocytes bind rabbits erythrocytes on their surface, this ability is used to observe the dynamics of changes in the number of T-lymphocytes. The number of the human T-lymphocytes is one of the parameters of evaluation of cellular immunity in the clinical immunology. […] The first step was to determine the number of T-lymphocytes by using the E-rosette assay in the 8 Guinea pigs in the weight range 260-310 g. The second step was to decrease the number of T-lymphocytes. This was done using the immunosuppressant Azathioprin. The application of this is per os for 7 of the guinea pigs. The 8th guinea pig will be used as a control without application of the immunosuppressant. The second determination of the T-lymphocytes followed 7 days after the application of the immunosuppressant. […] One of the suppressed guinea pigs was used as a control suppressed animal.
# The level of E-rosettes was determined on the first day from the blood of 12 experimental guinea pigs. On the second day, 8 animals (group A) were treated i.p. with oxoplatin as an anti-tumor agent and 3 animals (group B) were treated with double the dose of oxoplatin. The final guinea pig was used as a control. The level of E-rosettes was determined 5 days later.
# The level of the E-rosettes in 3 guinea pigs with low values of E-rosettes was determined again at day 35.
# The level of E-rosettes in 9 experimental guinea pigs was determined on the 1st day. On the second day 8 animals were injected with Campto and one was without application. The level of E-rosettes in all guinea pigs was determined on the 7th day of experiment. […] On day 22 of the experiment one guinea pig had E-rosette production determined. The level of E-rosettes was then determined again in all animals on day 29.
# The level of E-rosettes in 9 experimental guinea pigs was determined on the first day. On the second day, 8 guinea pigs were injected with Taxol. The level of E-rosettes was determined again on the 7th day of experimentation. […] The level of E-rosettes in all guinea pigs was determined on the 29th day.
# The level of the E-rosettes in 10 experimental guinea pigs was determined on the first day. On the second day, 9 guinea pigs were injected with Eloxatin. The level of E-rosettes were determined on the 7th day of experimentation. […] The final level of E-rosettes was then determined on the 30th day of experimentation.
# human PBMC = experiment: Lymphocyte proliferation in vitro (Stimulation index, Thymidine uptake); format: cell-based; conditions: PHA positive control
# Description: T-lymphocyte activation can be assessed directly by: • a) De novo expression or increase of activation markers such as CD69 on T lymphocytes (CD69+/CD4+ cells) after 4 hours activation • b) Measuring blastogenesis and/or proliferation of cells to phytomitogens (such as Phytohemagglutinin, PHA), common antigens or other substances evaluated 72 hours after activation • c) Antigen-induced release of cytokines (in this case the preparation-induced intra-cellular expression of IFNg in CD4+ T lymphocytes) Methods
# Heparinized venous blood from 5 healthy volunteers (women, aged 35-52 years) has been used for the performance of the following investigations:
# In vitro proliferation of PBMC from 5 healthy individuals is presented as Stimulation index in Table 2. The PHA-induced proliferation, used here as a positive control, verified good culturing conditions, as it is shown mean proliferation index 184.5±142.8 at 72 hours. As it is expected, at 6 day SI of PHA stimulation is dropping (it is a mitogen), but the cell cultures were intact.
# That is why we tested it's stimulation activity at 3 days and 6 days activation period.
# CD4+ T lymphocytes = experiment: Intracellular staining for IFNg and CD69 expression on CD4+ lymphocytes in whole blood; format: cell-based, human; conditions: for % CD69+ cells / % CD69+/IFNg+ cells: CD4+ lymphocytes, 0.5 ml blood + 50 μg preparation or 10 μg PHA
# Description: Briefly, whole peripheral blood was collected into sodium heparin. […] Addition of 10 μl Brefeldin A (Sigma, 10 μg/ml) to all tubes. Incubation for new 4 hours at 37° C., 5% CO2. Brefeldin A is an agent which arrest produced cytokine intracellular. Surface and intracellular staining for T-lymphocytes was performed according to the manufacturer rules with monoclonal antibodies against CD3, CD4, CD69 and IFNg from FastImmune CD4 Intracellular Cytokine Detection kit (BD). Red blood cells were lysed with FACS Lysing solution for 10 min. at room temperature. Permeabilization of lymphocytes was achieved using FACS Permeabilizing solution (BD) for 10 min. The activation and intracellular cytokine expression was evaluated by the staining with CD4/CD69/IGNg monoclonal antibodies
molecule,measurement,setting,value
CCc1c2c(nc3ccc(OC(=O)N4CCC(N5CCCCC5)CC4)cc13)-c1cc3c(c(=O)n1C2)COC(=O)[C@]3(O)CC [Campto],decrease of production of E-rosettes after application of Campto,"T-lymphocytes; Experiment 2, injected day 2, determined 7th day",22.7%
O=C1[O][Pt]2([NH][C@@H]3CCCC[C@H]3[NH]2)[O]C1=O [Eloxatin],decrease of formation of E-rosettes after application of Eloxatin,"T-lymphocytes; Experiment 4, injected day 2, determined 7th day",22%
CC(=O)O[C@H]1C(=O)[C@@]2(C)[C@H]([C@H](OC(=O)c3ccccc3)[C@]3(O)C[C@H](OC(=O)[C@H](O)[C@@H](NC(=O)c4ccccc4)c4ccccc4)C(C)=C1C3(C)C)[C@]1(OC(C)=O)CO[C@@H]1C[C@@H]2O [Taxol],decrease of production of E-rosettes after application of Taxol,"T-lymphocytes; Experiment 3, injected day 2, determined 7th day",16%
N.N.[Cl-].[Cl-].[OH-].[OH-].[Pt+4] [oxoplatin],decrease of production of E-rosettes after application of oxoplatin,"T-lymphocytes; Experiment 1, i.p., determined 5 days later",27.4%
Phytohemagglutinin [PHA],Stimulation index (PBMC proliferation),"human PBMC; Mean of donors, 3 days (72 hours)",184.5±142.8
same,Stimulation index (PBMC proliferation),"human PBMC; Mean of donors, 3 days (72 hours), listed as PHA(+)",184.33
same,Stimulation index (PBMC proliferation),"human PBMC; Mean of donors, 6 days",51.97
same,Stimulation index (PBMC proliferation),"human PBMC; donor four, 3 days",77.3
same,Stimulation index (PBMC proliferation),"human PBMC; donor four, 6 days",61.09
same,Stimulation index (PBMC proliferation),"human PBMC; donor one, 3 days",417
same,Stimulation index (PBMC proliferation),"human PBMC; donor one, 6 days",33
same,Stimulation index (PBMC proliferation),"human PBMC; donor six, 3 days",114.65
same,Stimulation index (PBMC proliferation),"human PBMC; donor six, 6 days",25.11
same,Stimulation index (PBMC proliferation),"human PBMC; donor three, 3 days",87.38
same,Stimulation index (PBMC proliferation),"human PBMC; donor three, 6 days",119.9
same,Stimulation index (PBMC proliferation),"human PBMC; donor two, 3 days",225.3
same,Stimulation index (PBMC proliferation),"human PBMC; donor two, 6 days",20.74
same,% CD69+ cells,CD4+ T lymphocytes; Mean of 6 donors,83.54%
same,% CD69+/IFNg+ cells,CD4+ T lymphocytes; Mean of 6 donors,4.97±5.75% and 4.97%
same,PHA induced % CD69+ cells,"CD4+ T lymphocytes; after 4 hours stimulation, healthy individuals",over 80%
same,% CD69+ cells,CD4+ T lymphocytes; donor five,78.46%
same,% CD69+/IFNg+ cells,CD4+ T lymphocytes; donor five,2.45%
same,% CD69+ cells,CD4+ T lymphocytes; donor four,87.87%
same,% CD69+/IFNg+ cells,CD4+ T lymphocytes; donor four,2.87%
same,% CD69+ cells,CD4+ T lymphocytes; donor one,89.58%
same,% CD69+/IFNg+ cells,CD4+ T lymphocytes; donor one,0.49%
same,% CD69+ cells,CD4+ T lymphocytes; donor six,90.03%
same,% CD69+/IFNg+ cells,CD4+ T lymphocytes; donor six,16.42%
same,% CD69+ cells,CD4+ T lymphocytes; donor three,86.39%
same,% CD69+/IFNg+ cells,CD4+ T lymphocytes; donor three,4.39%
same,% CD69+ cells,CD4+ T lymphocytes; donor two,68.91%
same,% CD69+/IFNg+ cells,CD4+ T lymphocytes; donor two,3.18%
